Reference: patent publication US12076330B2, “Inhibition of lipofuscin aggregation by molecular tweezers” (The Regents of the University of California, priority 2018, dated 2024)
“Also recorded” adds a separate entry of the source.

Legend:
Assay type in all cases: cell-based, human
[1] = system: lipofuscin (A2E) aggregation in ARPE-19 cells (retinal pigmented epithelium); assay: Lipofuscin A2E accumulation/aggregation in ARPE-19 cells, fluorescence microscopy after 6 h
Protocol: (§1) Panel A) CLR01 in PBS and lipofuscin A2E were added to the cells at the indicated times. Cells were incubated up to 6 h in all cases and were imaged using a fluorescence microscope for visualization of lipofuscin autofluorecence (red) and cell nuclei (DAPI, blue). Panel B) Quantification of the data shown in panel A (N=15 per condition). C) Confocal microscopy images showing that lipofuscin colocalizes with the Lysosomal-membrane marker lamp1.
To test the effect of CLR01 on lipofuscin aggregation, human, ARPE-19 cells (retinal pigmented epithelium; RPE) were treated with lipofuscin (A2E) in the absence or presence of CLR01 and imaged by fluorescence microscopy at the end of 6 h of incubation (FIG. 1, panel A), as follows: • Condition 1—negative control—20 μl of PBS was added to the cells at t=0 and 20 μl of DMSO at t=1.5 h. • Condition 2—safety control—CLR01 in PBS at final concentration of 100 μM was added to the cells at t=0 and DMSO at t=1.5 h. • Condition 3—positive control—PBS was added to the cells at t=0 and lipofuscin A2E in DMSO at final concentration of 100 μM at t=1.5 h. Lipofuscin A2E is a specific type of lipofuscin enriched in N-retinylidene-N-retinylethanolamine (A2E), which is derived from 11-cis-retinal and accumulates in the retinal pigmented epithelium (Boyer et al. (2012) J. Biol. Chem. 287: 22276-22286). • Condition 4—CLR01 in PBS at final concentration of 100 μM was added to the cells at t=0, after 1.5 h, the media was removed, the cells were washed with F12 medium, and new media was added. Lipofuscin A2E in DMSO at final concentration of 100 μM was added at t=1.5 h. • Condition 5—Lipofuscin A2E in DMSO was added to the cells at t=0 and CLR01 in PBS at final concentration of 100 μM was added at t=1 h.

[2] = system: lysosomes (LAMP-1) in ARPE-19 cells; assay: Confocal imaging of lipofuscin A2E and LAMP-1 in ARPE-19 cells
Protocol: as §1

[3] = system: pre-formed lipofuscin (A2E) aggregates in ARPE-19 cells; assay: Effect on pre-formed lipofuscin aggregates in ARPE-19 cells (A2E 10 h, wash, CLR01 12 h); details: A2E 100 μM for 10 h, CLR01 100 μM for 12 h
Protocol: FIG. 2, panel A) CLR01 in PBS and lipofuscin A2E were added to the cells at the indicated times. Cells were incubated up to 22 hours in all cases and were imaged using a fluorescence microscope for visualization of lipofuscin autofluorecence (red) and cell nuclei (DAPI, blue). FIG. 2, panel B) Quantification of the data shown in […] (N=15 per condition). Condition 1—negative control—20 μl of DMSO was added to the cells at t=0. After 10 h, the media was removed, the cells were washed with F12 medium, and new media was added. Condition 2—positive control—Lipofuscin A2E in DMSO at final concentration of 100 μM was added to the cells at t=0. After 10 h, the media was removed, the cells were washed with F12 medium, and new media was added. Condition 3—Lipofuscin A2E in DMSO was added to the cells at t=0. After 10 h, the media was removed, the cells were washed with F12 medium, and new media was added. CLR01 in PBS at final concentration of 100 μM was added at t=10 h.
The effect of CLR01 on pre-formed lipofuscin aggregates was tested as well. Human, ARPE-19 cells were treated with lipofuscin (A2E) for 10 h (to let lipofuscin aggregates form). Upon washing the cells to remove A2E from the media, CLR01 was added to the medium for an additional period of 12 h. Cells were then imaged by fluorescence microscopy and fluorescence quantified (FIG. 2). […]

lysosome integrity [2]: lysosome integrity was not affected
Substance: CLR01
inhibition of lipofuscin accumulation and aggregation (overall finding) ([1]; ARPE-19 retinal cells, CLR01 100 μM, lipofuscin A2E 100 μM): inhibits lipofuscin accumulation and aggregation; also recorded: powerfully inhibits the formation of lipofuscin aggregates | harm to the cells (safety control) ([1]; condition 2: CLR01 100 μM at t=0, DMSO at t=1.5 h, no A2E, ARPE-19 cells, 6 h): did not harm the cells | reduction of the accumulation of lipofuscin aggregates at 6 h ([1]; condition 4: CLR01 100 μM at t=0, washed out after 1.5 h, then lipofuscin A2E 100 μM, ARPE-19 cells, 6 h): ~60% | accumulation of lipofuscin aggregates ([1]; condition 5: lipofuscin A2E at t=0, CLR01 100 μM added at t=1 h, ARPE-19 cells, 6 h): reduced almost to the negative-control level | clearing effect compared with condition 5 of FIG. 1 (CLR01 added simultaneously with lipofuscin loading) [3]: lower
